According to patent publication US20160002267A1, “BENZYL-SUBSTITUTED PYRAZOLOPYRIDINES AND USE THEREOF” (BAYER PHARMA AKTIENGESELLSCHAFT, priority 2013, published 2016):

Tested on: conscious spontaneously hypertensive rats
Experiment: Radiotelemetric measurement of blood pressure on conscious spontaneously hypertensive rats
Type: in vivo, rat
Conditions: SHR
From the text: A commercially available telemetry system from DATA SCIENCES INTERNATIONAL DSI, USA, is employed for the blood pressure measurement on conscious rats described below.
The system consists of 3 main components: • implantable transmitters (Physiotel® telemetry transmitter) • receivers (Physiotel® receiver) which are linked via a multiplexer (DSI Data Exchange Matrix) to a • data acquisition computer.
The telemetry system makes it possible to continuously record blood pressure, heart rate and body motion of conscious animals in their usual habitat.
The investigations are carried out on adult female spontaneously hypertensive rats (SHR Okamoto) with a body weight of >200 g. SHR/NCrl from the Okamoto Kyoto School of Medicine, 1963 were a cross of male Wistar Kyoto rats with highly elevated blood pressure and female rats having a slightly elevated blood pressure and at F13 handed over to the U.S. National Institutes of Health.
After transmitter implantation, the experimental animals are housed singly in type 3 Makrolon cages. They have free access to standard feed and water.
The day/night rhythm in the experimental laboratory is changed by the room lighting at 6.00 am and at 7.00 pm.
The telemetry transmitters TA11 PA-C40 used are surgically implanted under aseptic conditions in the experimental animals at least 14 days before the first experimental use. The animals instrumented in this way can be employed repeatedly after the wound has healed and the implant has settled.
Initiation of anaesthesia gas O2+N2O […] with 5% isofluran in a through-flow vessel.
After the anaesthesia has been initiated, the animal is connected to the anaesthesia mask on a thermal plate and receives 1.8% isofluran for anaesthesia maintenance and is shaved and disinfected over a large area of its abdomen. After the abdominal cavity has been opened along the linea alba, the liquid-filled measuring catheter of the system is inserted into the descending aorta in the cranial direction above the bifurcation and fixed with tissue glue (VetBonD™, 3M). The transmitter housing is fixed intraperitoneally to the abdominal wall muscle, and layered closure of the wound is performed.
An antibiotic (Oxytetracyclin® 10%, 60 mg/kg s.c., 0.06 ml/100 g body weight, Beta-Pharma GmbH & Co, Germany) and an analgesic (Rimadyl®, 4 mg/kg s.c., Pfizer, Germany) are administered postoperatively for prophylaxis of infection.
Unless indicated otherwise, the substances to be investigated are administered orally by gavage in each case to a group of animals (n=6). The test substances are dissolved in suitable solvent mixtures, or suspended in 0.5% strength Tylose, appropriate for an administration volume of 2 ml/kg of body weight.
A solvent-treated group of animals is employed as control.
The telemetry measuring unit present is configured for 24 animals. Each experiment is recorded under an experiment number (Vyear month day).
Each of the instrumented rats living in the system is assigned a separate receiving antenna (1010 Receiver, DSI).
The implanted transmitters can be activated externally by means of an incorporated magnetic switch and are switched to transmission in the run-up to the experiment. The signals emitted can be detected online by a data acquisition system (Dataquest™ A.R.T. for WINDOWS, DSI) and processed accordingly. The data are stored in each case in a file created for this purpose and bearing the experiment number.
In the standard procedure, the following are measured for 10-second periods in each case: • systolic blood pressure (SBP) • diastolic blood pressure (DBP) • mean arterial pressure (MAP) • heart rate (HR) • activity (ACT).
The acquisition of measurements is repeated under computer control at 5-minute intervals. The source data obtained as absolute value are corrected in the diagram with the currently measured barometric pressure (Ambient Pressure Reference Monitor; APR-1) and stored as individual data. […]

**Q.** Which Mean blood pressure (0.03 mg/kg, 0 hours after administration of substance) does the source give for `CC1(C(F)(F)F)C(=O)Nc2nc(-c3nn(Cc4ccccc4F)c4ncc(F)cc34)nc(NCCC(F)(F)F)c21` (single isomer, unassigned) [Example 1-1, 2-[5-Fluoro-1-(2-fluorobenzyl)-1H-pyrazolo[3,4-b]pyridin-3-yl]-5-methyl-5-(trifluoromethyl)-4-[(3,3,3-trifluoropropyl)amino]-5,7-dihydro-6H-pyrrolo[2,3-d]pyrimidin-6-one] here?
**A.** 140.3 mmHg

**Q.** What about the Mean blood pressure (0.03 mg/kg, 1 hours after administration of substance) of the same molecule?
**A.** 124.4 mmHg

**Q.** What about the Mean blood pressure (0.03 mg/kg, 2 hours after administration of substance) of the same molecule?
**A.** 125.2 mmHg

**Q.** And the Mean blood pressure (0.03 mg/kg, 3 hours after administration of substance)?
**A.** 120.6 mmHg

**Q.** And the Mean blood pressure (0.03 mg/kg, 4 hours after administration of substance)?
**A.** 124.2 mmHg

**Q.** And the Mean blood pressure (0.03 mg/kg, 5 hours after administration of substance)?
**A.** 119.2 mmHg

**Q.** What about the Mean blood pressure (0.03 mg/kg, 6 hours after administration of substance) of the same molecule?
**A.** 122.4 mmHg

**Q.** And the Mean blood pressure (0.03 mg/kg, 7 hours after administration of substance)?
**A.** 124.8 mmHg

**Q.** What about the Mean blood pressure (0.03 mg/kg, 8 hours after administration of substance) of the same molecule?
**A.** 129.0 mmHg

**Q.** And the Mean blood pressure (0.03 mg/kg, 9 hours after administration of substance)?
**A.** 132.2 mmHg

**Q.** And the Mean blood pressure (0.03 mg/kg, 10 hours after administration of substance)?
**A.** 126.0 mmHg

**Q.** What about the Mean blood pressure (0.03 mg/kg, 11 hours after administration of substance) of the same molecule?
**A.** 119.8 mmHg

**Q.** And the Mean blood pressure (0.03 mg/kg, 12 hours after administration of substance)?
**A.** 134.4 mmHg

**Q.** What about the Mean blood pressure (0.03 mg/kg, 13 hours after administration of substance) of the same molecule?
**A.** 130.0 mmHg

**Q.** And the Mean blood pressure (0.03 mg/kg, 14 hours after administration of substance)?
**A.** 131.4 mmHg

**Q.** And the Mean blood pressure (0.03 mg/kg, 15 hours after administration of substance)?
**A.** 133.6 mmHg

**Q.** And the Mean blood pressure (0.03 mg/kg, 16 hours after administration of substance)?
**A.** 120.6 mmHg

**Q.** What about the Mean blood pressure (0.03 mg/kg, 17 hours after administration of substance) of the same molecule?
**A.** 135.4 mmHg

**Q.** What about the Mean blood pressure (0.03 mg/kg, 18 hours after administration of substance) of the same molecule?
**A.** 131.6 mmHg

**Q.** And the Mean blood pressure (0.03 mg/kg, 19 hours after administration of substance)?
**A.** 123.2 mmHg

**Q.** What about the Mean blood pressure (0.03 mg/kg, 20 hours after administration of substance) of the same molecule?
**A.** 123.4 mmHg

**Q.** And the Mean blood pressure (0.03 mg/kg, 21 hours after administration of substance)?
**A.** 125.4 mmHg

**Q.** What about the Mean blood pressure (0.03 mg/kg, 22 hours after administration of substance) of the same molecule?
**A.** 134.2 mmHg

**Q.** And the Mean blood pressure (0.03 mg/kg, 23 hours after administration of substance)?
**A.** 132.0 mmHg

**Q.** What about the Mean blood pressure (0.03 mg/kg, 24 hours after administration of substance) of the same molecule?
**A.** 126.8 mmHg

**Q.** And the Mean blood pressure (0.3 mg/kg p.o., 0 hours after administration of substance)?
**A.** 144.2 mmHg

**Q.** And the Mean blood pressure (0.3 mg/kg p.o., 1 hours after administration of substance)?
**A.** 128.5 mmHg

**Q.** And the Mean blood pressure (0.3 mg/kg p.o., 2 hours after administration of substance)?
**A.** 116.7 mmHg

**Q.** And the Mean blood pressure (0.3 mg/kg p.o., 3 hours after administration of substance)?
**A.** 112.8 mmHg

**Q.** And the Mean blood pressure (0.3 mg/kg p.o., 4 hours after administration of substance)?
**A.** 114.3 mmHg

**Q.** What about the Mean blood pressure (0.3 mg/kg p.o., 5 hours after administration of substance) of the same molecule?
**A.** 109.3 mmHg

**Q.** And the Mean blood pressure (0.3 mg/kg p.o., 6 hours after administration of substance)?
**A.** 110.2 mmHg

**Q.** What about the Mean blood pressure (0.3 mg/kg p.o., 7 hours after administration of substance) of the same molecule?
**A.** 113.5 mmHg

**Q.** What about the Mean blood pressure (0.3 mg/kg p.o., 8 hours after administration of substance) of the same molecule?
**A.** 114.2 mmHg

**Q.** And the Mean blood pressure (0.3 mg/kg p.o., 9 hours after administration of substance)?
**A.** 114.5 mmHg

**Q.** And the Mean blood pressure (0.3 mg/kg p.o., 10 hours after administration of substance)?
**A.** 109.5 mmHg

**Q.** What about the Mean blood pressure (0.3 mg/kg p.o., 11 hours after administration of substance) of the same molecule?
**A.** 118.2 mmHg

**Q.** What about the Mean blood pressure (0.3 mg/kg p.o., 12 hours after administration of substance) of the same molecule?
**A.** 110.5 mmHg

**Q.** And the Mean blood pressure (0.3 mg/kg p.o., 13 hours after administration of substance)?
**A.** 115.5 mmHg

**Q.** What about the Mean blood pressure (0.3 mg/kg p.o., 14 hours after administration of substance) of the same molecule?
**A.** 117.8 mmHg

**Q.** What about the Mean blood pressure (0.3 mg/kg p.o., 15 hours after administration of substance) of the same molecule?
**A.** 114.5 mmHg

**Q.** And the Mean blood pressure (0.3 mg/kg p.o., 16 hours after administration of substance)?
**A.** 118.2 mmHg

**Q.** What about the Mean blood pressure (0.3 mg/kg p.o., 17 hours after administration of substance) of the same molecule?
**A.** 122.7 mmHg

**Q.** What about the Mean blood pressure (0.3 mg/kg p.o., 18 hours after administration of substance) of the same molecule?
**A.** 127.8 mmHg

**Q.** What about the Mean blood pressure (0.3 mg/kg p.o., 19 hours after administration of substance) of the same molecule?
**A.** 121.0 mmHg

**Q.** What about the Mean blood pressure (0.3 mg/kg p.o., 20 hours after administration of substance) of the same molecule?
**A.** 110.5 mmHg

**Q.** And the Mean blood pressure (0.3 mg/kg p.o., 21 hours after administration of substance)?
**A.** 113.3 mmHg

**Q.** What about the Mean blood pressure (0.3 mg/kg p.o., 22 hours after administration of substance) of the same molecule?
**A.** 116.7 mmHg

**Q.** What about the Mean blood pressure (0.3 mg/kg p.o., 23 hours after administration of substance) of the same molecule?
**A.** 115.7 mmHg

**Q.** And the Mean blood pressure (0.3 mg/kg p.o., 24 hours after administration of substance)?
**A.** 123.7 mmHg
